Data set [1] relates to pCHK1 (S345) in Colo320 DM cells. The data set is described as follows: Alphalisa assay, detection of pCHK1 (S345) in Colo320 DM cells. Conditions: Homo sapiens, COLO 320DM, compound overnight (approximately 16 hours). In kind it is cell-based, human. An outline of the steps: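 Colo320 DM cells plated overnight, then exposed to compound for about 16 h at 37 °C (DMSO <0.5%). Cells lysed and phospho-CHK1 (S345) quantified by AlphaLisa SureFire with sequential 60 min acceptor and donor incubations at room temperature.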
Background: In Alpha technology, singlet oxygen from a donor bead excites a nearby acceptor bead.

The next data set deals with human hepatocytes. The data set is described as follows: Human hepatocyte stability assay. It is filed as in vitro ADME. Conditions: 0.5×10^6 viable cells/ml, time points 0.5 and 60 minutes. On the procedure:
1. 10 mM stock solutions of test compounds and positive control were prepared in DMSO. Thawing medium and supplement incubation medium (serum-free) were placed in a 37° C. water bath for at least 15 minutes prior to use.
2. Stock solutions were diluted to 100 μM by combining 198 μL acetonitrile and 2 μL of 10 mM stock solution. Verapamil was use as positive control in the assay.
3. Vials of cryopreserved human hepatocytes were removed from storage, while ensuring that vials remain at cryogenic temperatures. The pressure was removed by loosening and re-tightening the cap. The vials were thawed in a 37° C. water bath with gentle shaking. Vials remained in the water bath until all ice crystals had dissolved and were no longer visible. Vials were sprayed with 70% ethanol before being transferred to a biosafety cabinet. Then the contents were poured into a 50 mL thawing medium conical tube. Vials were centrifuged at 100 g for 10 minutes at room temperature. Thawing medium was aspirated and hepatocytes were re-suspended with serum-free incubation medium to yield ˜1.5×10^6 cells/mL.
4. Cell viability and density were counted using Cellometer® Vision, and then cells were diluted with serum-free incubation medium to a working cell density of 0.5×10^6 viable cells/ml.
5. Aliquots of 198 μL hepatocytes were dispensed into each well of a 96-well non-coated plate. The plate was placed in the incubator on an orbital shaker at 500 rpm for approximately 10 minutes.
6. Aliquots of 2 μL of the 100 μM test compounds or verapamil were added into respective wells of the non-coated 96-well plate to start the reaction. This assay was performed in duplicate. The plate was incubated in the incubator on an orbital shaker at 500 rpm for the designed time points.
7.25 μL of contents were transferred and mixed with 5 volumes (125 μL) of cold acetonitrile with IS (100 nM alprazolam, 200 nM caffeine, 100 nM labetalol and 100 nM tolbutamide) to terminate the reaction at time points of 0.5 and 60 minutes. Samples were centrifuged for 30 minutes at 3,220 g. Then transfer 100 μL of the supernatant to new 96-well plates for analysis. Add 100 μL of distilled water to each sample and mix for analysis by LC-MS/MS.
All calculations were carried out using Microsoft Excel. Peak areas were determined from extracted ion chromatograms. The in vitro half-life (tin) of the parent compound was determined by regression analysis of the percent parent disappearance vs. time curve. • a. The in vitro half-life (in vitro tin) was determined from the slope value: in vitro t1/2=0.693/k • b. Conversion of the in vitro tin (in min) into the in vitro intrinsic clearance (in vitro CLint, in μL/min/10^6 cells) was done using the following equation: […]

Another data set deals with T1, RNR (RNR1:RNR2 1:1) (Homo sapiens, UniProt P23921).
T1 sequence (P23921 1-792): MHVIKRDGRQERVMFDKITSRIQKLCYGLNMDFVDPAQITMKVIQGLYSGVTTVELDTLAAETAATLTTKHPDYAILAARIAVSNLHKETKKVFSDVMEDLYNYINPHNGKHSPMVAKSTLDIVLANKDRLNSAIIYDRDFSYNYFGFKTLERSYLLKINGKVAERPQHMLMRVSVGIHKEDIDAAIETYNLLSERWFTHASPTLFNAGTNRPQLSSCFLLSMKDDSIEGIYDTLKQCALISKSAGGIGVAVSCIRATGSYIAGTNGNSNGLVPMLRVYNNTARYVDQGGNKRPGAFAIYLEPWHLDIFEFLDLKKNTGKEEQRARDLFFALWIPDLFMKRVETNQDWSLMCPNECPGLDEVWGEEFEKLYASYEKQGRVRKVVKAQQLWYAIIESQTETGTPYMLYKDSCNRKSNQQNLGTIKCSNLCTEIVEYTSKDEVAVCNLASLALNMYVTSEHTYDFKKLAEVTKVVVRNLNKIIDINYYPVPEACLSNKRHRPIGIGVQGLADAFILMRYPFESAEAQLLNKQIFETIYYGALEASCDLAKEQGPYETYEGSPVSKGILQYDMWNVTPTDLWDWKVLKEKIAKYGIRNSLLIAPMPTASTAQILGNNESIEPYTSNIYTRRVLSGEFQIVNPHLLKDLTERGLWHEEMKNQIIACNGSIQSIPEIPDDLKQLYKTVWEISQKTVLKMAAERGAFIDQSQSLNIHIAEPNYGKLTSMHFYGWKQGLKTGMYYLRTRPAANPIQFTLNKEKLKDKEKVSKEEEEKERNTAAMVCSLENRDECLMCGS
The data set is described as follows: RNR enzyme activity, rapid-fire mass spectrometry (RF/MS) assay. It is filed as biochemical. To be noted: [RNR] 50 nM, 1:1 RNR1:RNR2; CDP 5 μM; ATP 1 mM; 37° C., 45 min; compounds screened up to 50 μM. An outline of the steps:
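Human RNR (50 nM final, RNR1:RNR2 1:1) pre-incubated 15 min at room temperature, then reacted 45 min at 37 °C with 5 μM CDP and 1 mM ATP, no NADPH. Reaction quenched with 6% HCOOH; product quantified by rapid-fire mass spectrometry.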

Structures are written as SMILES.

In the case of `Cc1ccc(F)c([C@@H](C)[C@@H](c2n[nH]c(=O)o2)N2CN(C3CCOC(C)(C)C3)c3cc(Cl)ccc3S2(=O)=O)c1C` (single isomer, unassigned) [Example 89], in data set [1], the IC50 (commonly the concentration that inhibits the measured activity by half) was at most 1 µM. In the data set with human hepatocytes, the Clhep entry is listed as “B (10 ml/min/kg < Clhep ≤ 20 ml/min/kg)”.

Take `Cc1ccc(F)c([C@@H](C)[C@@H](c2n[nH]c(=O)o2)N2CN([C@H]3CCOC(C)(C)C3)c3cc(Cl)ccc3S2(=O)=O)c1C` (single isomer, unassigned) [Example 90]: the half-maximal inhibitory concentration (IC50) in data set [1] is at most 1 µM. In addition, the Clhep entry with human hepatocytes is given as “B (10 ml/min/kg < Clhep ≤ 20 ml/min/kg)”.

Molecule `Cc1ccc(F)c([C@@H](C)[C@@H](c2n[nH]c(=O)o2)N2CN(CCN3CCCC3)c3nc(Cl)ccc3S2(=O)=O)c1C` [Example 92, 5-((1S,2R)-1-(6-chloro-1,1-dioxido-4-(2-(pyrrolidin-1-yl)ethyl)-3,4-dihydro-2H-pyrido[2,3-e][1,2,4]thiadiazin-2-yl)-2-(6-fluoro-2,3-dimethylphenyl)propyl)-1,3,4-oxadiazol-2 (3H)-one] gave a 50% inhibitory concentration (IC50) in data set [1] of 1 to 5 µM. The Clhep entry in the data set on human hepatocytes is “A (0 ml/min/kg ≤ Clhep ≤ 10 ml/min/kg)”.

In data set [1], `Cc1ccc(F)c([C@@H](C)[C@@H](c2n[nH]c(=O)o2)N2CN(CCN3CCOCC3)c3nc(Cl)ccc3S2(=O)=O)c1C` [Example 93, 5-((1S,2R)-1-(6-chloro-4-(2-morpholinoethyl)-1,1-dioxido-3,4-dihydro-2H-pyrido[2,3-e][1,2,4]thiadiazin-2-yl)-2-(6-fluoro-2,3-dimethylphenyl)propyl)-1,3,4-oxadiazol-2 (3H)-one] showed a half-maximal inhibitory concentration (IC50) of at most 1 µM. Besides, the Clhep result in the data set with human hepatocytes is given as “A (0 ml/min/kg ≤ Clhep ≤ 10 ml/min/kg)”.

Take `COC(C)(C)CN1CN([C@H](c2n[nH]c(=O)o2)[C@H](C)c2c(F)ccc(C)c2C)S(=O)(=O)c2ccc(Cl)cc21` [Example 98, 5-((1S,2R)-1-(6-chloro-4-(2-methoxy-2-methylpropyl)-1,1-dioxido-3,4-dihydro-2H-benzo[e][1,2,4]thiadiazin-2-yl)-2-(6-fluoro-2,3-dimethylphenyl)propyl)-1,3,4-oxadiazol-2 (3H)-one]: the concentration for half-maximal inhibition (IC50) at RNR (RNR1:RNR2 1:1) is below 0.02 µM; in data set [1] it was at most 1 µM.

Turning to `Cc1ccc(F)c([C@@H](C)[C@@H](c2n[nH]c(=O)o2)N2CN([C@@H]3CCN(CC(F)(F)F)C3)c3cc(Cl)ccc3S2(=O)=O)c1C` [Example 99, 5-((1S,2R)-1-(6-chloro-1,1-dioxido-4-((R)-1-(2,2,2-trifluoroethyl)pyrrolidin-3-yl)-3,4-dihydro-2H-benzo[e][1,2,4]thiadiazin-2-yl)-2-(6-fluoro-2,3-dimethylphenyl)propyl)-1,3,4-oxadiazol-2 (3H)-one], the half-inhibitory concentration (IC50) was 0.02 to 0.1 µM on RNR (RNR1:RNR2 1:1) and at most 1 µM in data set [1].

For `Cc1ccc(F)c([C@@H](C)[C@@H](c2n[nH]c(=O)o2)N2CN(C3CC3)c3cc(Cl)cc(C(C)Cl)c3S2(=O)=O)c1C` (stereo partly drawn) [Example 100, 5-((1S,2R)-1-(6-chloro-8-(1-chloroethyl)-4-cyclopropyl-1,1-dioxido-3,4-dihydro-2H-benzo[e][1,2,4]thiadiazin-2-yl)-2-(6-fluoro-2,3-dimethylphenyl)propyl)-1,3,4-oxadiazol-2 (3H)-one], the half-inhibitory concentration (IC50) against RNR (RNR1:RNR2 1:1) fell in the range of 0.02 to 0.1 µM; in data set [1], 1 to 5 µM.

For `Cc1ccc(F)c([C@@H](C)[C@@H](c2n[nH]c(=O)o2)N2CN([C@H]3CCN(CC(F)(F)F)C3)c3cc(Cl)ccc3S2(=O)=O)c1C` [Example 101, 5-((1S,2R)-1-(6-chloro-1,1-dioxido-4-((S)-1-(2,2,2-trifluoroethyl)pyrrolidin-3-yl)-3,4-dihydro-2H-benzo[e][1,2,4]thiadiazin-2-yl)-2-(6-fluoro-2,3-dimethylphenyl)propyl)-1,3,4-oxadiazol-2 (3H)-one], the 50% inhibitory concentration (IC50) against RNR (RNR1:RNR2 1:1) lay within 0.02 to 0.1 µM; in data set [1], 1 to 5 µM.

Consider `CC(=O)c1cc(Cl)cc2c1S(=O)(=O)N([C@H](c1n[nH]c(=O)o1)[C@H](C)c1c(F)ccc(C)c1C)CO2` [Example 102, 5-((1S,2R)-1-(8-acetyl-6-chloro-1,1-dioxidobenzo[e][1,4,3]oxathiazin-2 (3H)-yl)-2-(6-fluoro-2,3-dimethylphenyl)propyl)-1,3,4-oxadiazol-2 (3H)-one], for which the values for the half-maximal inhibitory concentration (IC50) (against RNR (RNR1:RNR2 1:1); in data set [1]) were below 0.02 µM and at most 1 µM, respectively.

Take `CC(=O)c1cc(Cl)cc2c1S(=O)(=O)N([C@H](c1n[nH]c(=O)o1)[C@@H](C)c1c(F)ccc(C)c1C)CO2` [Example 103, 5-((1S,2S)-1-(8-acetyl-6-chloro-1,1-dioxidobenzo[e][1,4,3]oxathiazin-2 (3H)-yl)-2-(6-fluoro-2,3-dimethylphenyl)propyl)-1,3,4-oxadiazol-2 (3H)-one]: the half-inhibitory concentration (IC50) against RNR (RNR1:RNR2 1:1) lay within 1 to 10 µM; in data set [1], 5 to 10 µM.

On to `Cc1ccc(F)c([C@@H](C)[C@@H](c2n[nH]c(=O)o2)N2CN([C@@H]3CCN(CCF)C3)c3cc(Cl)ccc3S2(=O)=O)c1C` [Example 104, 5-((1S,2R)-1-(6-chloro-4-((R)-1-(2-fluoroethyl)pyrrolidin-3-yl)-1,1-dioxido-3,4-dihydro-2H-benzo[e][1,2,4]thiadiazin-2-yl)-2-(6-fluoro-2,3-dimethylphenyl)propyl)-1,3,4-oxadiazol-2 (3H)-one], for which the IC50 against RNR (RNR1:RNR2 1:1) is below 0.02 µM; in data set [1], at most 1 µM.

As to `Cc1ccc(F)c([C@@H](C)[C@@H](c2n[nH]c(=O)o2)N2CN(CCN3CCN(C)CC3)c3cc(Cl)ccc3S2(=O)=O)c1C` [Example 105, 5-((1S,2R)-1-(6-chloro-4-(2-(4-methylpiperazin-1-yl)ethyl)-1,1-dioxido-3,4-dihydro-2H-benzo[e][1,2,4]thiadiazin-2-yl)-2-(6-fluoro-2,3-dimethylphenyl)propyl)-1,3,4-oxadiazol-2 (3H)-one], the IC50 is below 0.02 µM against RNR (RNR1:RNR2 1:1) and 1 to 5 µM in data set [1].

With `Cc1ccc(F)c([C@@H](C)[C@@H](c2n[nH]c(=O)o2)N2CN([C@H]3CCN(CCF)C3)c3cc(Cl)ccc3S2(=O)=O)c1C` [Example 106, 5-((1S,2R)-1-(6-chloro-4-((S)-1-(2-fluoroethyl)pyrrolidin-3-yl)-1,1-dioxido-3,4-dihydro-2H-benzo[e][1,2,4]thiadiazin-2-yl)-2-(6-fluoro-2,3-dimethylphenyl)propyl)-1,3,4-oxadiazol-2 (3H)-one], the IC50 against RNR (RNR1:RNR2 1:1) was below 0.02 µM; in data set [1], at most 1 µM.

For the molecule `CON1CN([C@H](c2n[nH]c(=O)o2)[C@H](C)c2c(F)ccc(C)c2C)S(=O)(=O)c2ccc(Cl)cc21` [Example 116, 5-((1S,2R)-1-(6-chloro-4-methoxy-1,1-dioxido-3,4-dihydro-2H-benzo[e][1,2,4]thiadiazin-2-yl)-2-(6-fluoro-2,3-dimethylphenyl)propyl)-1,3,4-oxadiazol-2 (3H)-one], in data set [1], the half-inhibitory concentration (IC50) is at most 1 µM. In addition, the Clhep result in the data set with human hepatocytes was “B (10 ml/min/kg < Clhep ≤ 20 ml/min/kg)”.
